The values that follow come from ChEMBL document CHEMBL6182911, “From Diarylsulfides to Diarylamines: New Ebola Virus Entry Inhibitors with Improved Metabolic Stability” (J Med Chem, 2025).

The structures appear in SMILES notation. Calls of active or inactive are those of the source. No cut-off for these calls is given here.

The subject of data set [1] is Ebolavirus. Kind of data set: Antiviral activity against VSV-G pseudotyped EBOV-GP Mayinga infected in African green monkey Vero E6 cells assessed as inhibition of viral infection preincubated with cells for 1 hr followed by viral infection and measured after 24 hrs by luciferase based luminometric analysis. To be noted: Orthoebolavirus, Vero C1008. The format is functional, organism-based.

Data set [2] relates to Vesicular stomatitis virus. Kind of data set: Antiviral activity against VSV-G pseudotyped virus infected in African green monkey Vero E6 cells assessed as inhibition of viral infection at 10 uM preincubated with cells for 1 hr followed by viral infection and measured after 24 hrs by luciferase based luminometric analysis. The format is functional, organism-based. The conditions noted are these: time 25.0 hrs.

Data set [3] is described as follows: Cytotoxicity against African green monkey Vero E6 cells assessed as reduction in cell viability incubated for 24 hrs by CellTiter-Glo Luminescent Cell Viability Assay. The format is toxicity, cell-based, Vero C1008. The conditions noted are these: chlorocebus sabaeus. (In general: In ATP-based viability assays light output follows the ATP content of the culture.)

Data set [4] can be described thus: Selectivity index, ratio of CC50 for cytotoxicity against African green monkey Vero E6 cells to EC50 for antiviral activity against replicative EBOV Mayinga variant infected in African green monkey Vero E6 cells. The format is toxicity, cell-based. To be noted: read-out: Ratio CC50/EC50.
The test system of data set [5] is Ebolavirus. Kind of data set: Antiviral activity against replicative EBOV Mayinga infected in African green monkey Vero E6 cells assessed as reduction in virus titer in cell culture supernatant incubated for 3 days by immunofocus assay. The format is functional, organism-based.
Data set [6] relates to Ebolavirus. Kind of data set: Binding affinity to EBOV-GP assessed as appearance of STD signals of aromatic region of compound at ligand to protein concentration molar ratio of 100:1 by STD-NMR analysis.
The subject of data set [7] is Ebolavirus. Kind of data set: Inhibition of cleaved EBOV-GP assessed as disruption of interaction between EBOV-GPcl and Flag-tagged human NPC1 domain C at 50 uM by ELISA. (In general: In an ELISA, binding on a coated surface is turned into a signal by an enzyme label.)
The subject of data set [8] is Ebolavirus. Kind of data set: Binding affinity to EBOV-GP assessed as appearance of STD signals of aromatic region of compound at ligand to protein concentration molar ratio of 100:1 in presence of imipramine by STD-NMR analysis.
Data set [9] is described as follows: Selectivity index, ratio of CC50 for cytotoxicity against African green monkey Vero E6 cells to EC50 for antiviral activity against VSV-G pseudotyped EBOV-GP Mayinga infected in African green monkey Vero E6 cells. To be noted: read-out: Ratio CC50/EC50. The format is toxicity, cell-based.

By EC50 is commonly meant the concentration that produces a half-maximal response. As for `CCN(CC)CC(=O)NNc1ccccc1Sc1cc(Cl)ccc1[N+](=O)[O-]`, the EC50 in data set [1] worked out at 4.02 µM.

Take `O=C(CNCCC1CCN(Cc2ccccc2)CC1)Nc1ccccc1Sc1cc(Cl)ccc1[N+](=O)[O-]`: the result in [2] was inactive.

In general, CC50 refers to the concentration giving 50% cytotoxicity. Regarding `NC(=O)c1nc(F)c[nH]c1=O`, the 50% cytotoxic concentration (CC50) at 24 h in [3] is above 1000 µM. Besides, in data set [4], the selectivity ratio was found to be 14.9.

On to `O=C(CN1CCCCC1)Nc1ccccc1Sc1cc(Cl)ccc1[N+](=O)[O-]`, for which the CC50 at 24 h in data set [3] is 250 µM.

With `O=C(CCN1CCCC1)Nc1ccccc1Nc1cc(Cl)ccc1[N+](=O)[O-]`, the outcome in data set [2] was inactive.

Regarding `O=C(CNCc1ccccc1)Nc1ccccc1Sc1cc(Cl)ccc1[N+](=O)[O-]`, the CC50 at 24 h in data set [3] stood at 250 µM.

In the case of `CCN(CC)CC(=O)Nc1ccccc1Sc1cc(Cl)ccc1[N+](=O)[O-]`, the half-maximal cytotoxic concentration (CC50) at 24 h in [3] amounted to 250 µM.

Regarding `O=C(CCNCCc1ccccc1)Nc1ccccc1Sc1cc(Cl)ccc1[N+](=O)[O-]`, the 50% cytotoxic concentration (CC50) at 24 h in [3] was found to be 250 µM.

Regarding `CCN(CC)CCC(=O)Nc1ccccc1Sc1cc(Cl)ccc1[N+](=O)[O-]`, the result in [2] was inactive.

For `O=C(CCN1CCCC1)Nc1ccccc1Sc1cc(Cl)ccc1[N+](=O)[O-]`, in data set [5], the EC50 result is on record as “Not_active”. Besides, the result in data set [2] was inactive.

With `O=C(CNCCC1CCN(Cc2ccccc2)CC1)Nc1ccccc1Nc1cc(Cl)ccc1[N+](=O)[O-]`, the outcome in [6] was Active. Further, in data set [7], the inhibition result was “Active”. Further, the result in data set [2] and in data set [8] was inactive. Also, the selectivity ratio came to 4.1 in data set [9] and 2.3 in data set [4].

For the molecule `O=C(CN1CCCC1)Nc1ccccc1Sc1cc(Cl)ccc1[N+](=O)[O-]`, the EC50 entry in data set [5] is given as “Not_active”. For the same molecule, in [3], the half-maximal cytotoxic concentration (CC50) at 24 h is 250 µM.

As for `CCN(CC)CCC(=O)Nc1ccccc1Nc1cc(Cl)ccc1[N+](=O)[O-]`, the result in [2] was inactive.

For `O=C(CN1CCCC1)NNc1ccccc1Sc1cc(Cl)ccc1[N+](=O)[O-]`, the half-maximal effective concentration (EC50) in data set [1] was 2.9 µM.
